How the values were obtained:
Assay in all cases: normalised viability (% of control), CellTiter-Blue; higher = more viable cells (about 100 = DMSO control)
Settings in all cases: incubation time: 72 h
[1] = system: BT-474
How it was run: (§1)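 Seeded at 20 µl suspension per well onto compound-loaded 384-well plates, breast cancer cell lines were incubated 72 h. CellTiter-Blue fluorescence at 560/590 nm was then read, with each plate normalised to vehicle (100) and a positive kill control (0). Normalised viability is reported at a single listed concentration of the series.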

[2] = system: BT-549
How it was run: as §1

[3] = system: CAL-120
How it was run: as §1

[4] = system: CAL-148
How it was run: as §1

[5] = system: CAL-51
How it was run: as §1

[6] = system: CAL-85-1
How it was run: as §1

[7] = system: DU-4475
How it was run: as §1

[8] = system: HCC1143
How it was run: as §1

[9] = system: HCC1599
How it was run: as §1

[10] = system: HCC1937
How it was run: as §1

[11] = system: HDQ-P1
How it was run: as §1

[12] = system: Hs578T
How it was run: as §1

[13] = system: MDA-MB-231
How it was run: as §1

[14] = system: MDA-MB-436
How it was run: as §1

[15] = system: MDA-MB-453
How it was run: as §1

[16] = system: MFM-223
How it was run: as §1

[17] = system: SK-BR-3
How it was run: as §1

CC(C)(C)c1cnc(CSc2cnc(NC(=O)C3CCNCC3)s2)o1 [SNS-032]
normalised viability [%]
Settings	3 nM	10 nM	30 nM	100 nM	1000 nM	10000 nM
[1]	–	119	–	–	26.5	35
[2]	–	94.8	–	–	11.6	9.46
[3]	–	84.1	–	–	12.9	11.8
[4]	91.9	–	99.5	77.1	–	–
[5]	113	–	107	107	–	–
[6]	88.8	–	78.5	70.1	–	–
[7]	101	–	86.9	87.5	–	–
[8]	–	79.7	–	–	17.5	16.6
[9]	–	113	–	–	17.4	22.4
[10]	–	138	–	–	23.1	17.1
[11]	113	–	93.5	63	–	–
[12]	–	104	–	–	5.65	4
[13]	–	106	–	–	8.24	7.03
[14]	–	105	–	–	16.2	15.1
[15]	118	–	92.7	70.8	–	–
[16]	–	87.9	–	–	14.2	20
[17]	–	98.4	–	–	5.34	4.75

Cn1cc(C2=Nc3cc(NC(=O)C(N)C4CCCCC4)cc4c3C2=CNNC4=O)cn1 (configuration not stated)
normalised viability [%]
Settings	3 nM	10 nM	30 nM	100 nM	1000 nM	10000 nM
[1]	–	103	–	–	104	98.9
[2]	–	80.9	–	–	37.4	18.6
[3]	–	96.5	–	–	57.2	27
[4]	88.3	–	93.5	94	–	–
[5]	104	–	87.2	93	–	–
[6]	89	–	78.3	90	–	–
[7]	89.6	–	82.9	86.3	–	–
[8]	–	85.5	–	–	57.2	25.6
[9]	–	94.6	–	–	52.8	42
[10]	–	98.2	–	–	55.3	22.7
[11]	104	–	102	106	–	–
[12]	–	122	–	–	35.1	29.5
[13]	–	81.7	–	–	85.6	34.5
[14]	–	102	–	–	70	32.8
[15]	96.7	–	94.9	72.4	–	–
[16]	–	86.1	–	–	57.3	62.2
[17]	–	81.8	–	–	13.8	10.8

— the supplement of paper PMC4862054
